Data from EP0392745B1, “Immunoconjugates and prodrugs and their use in association for drug delivery” (CELLTECH LIMITED, priority 1989, dated 1990).
Read-outs that look alike come from different tables or passages of the source.

Experiments:
[1] = test system: Mouse lymphoma cells, line L5178Y clone 3.7.2.C; assay: Cell tissue culture cytotoxicity assay of relative drug/prodrug toxicity; assay type: cell-based
Protocol: A tissue culture assay using a mouse lymphoma cell line [Phillips (1974), Biochem. Pharmacol. 23, 131-138] was used to determine the relative toxicity of drug and prodrug samples. The cepholosporin - prodrugs tested were those of Example 2,5,6 - 10 and 12.
For compounds of Examples 2, and 7-10 the corresponding non-cephalosporin linked drug was tested. In the case of compounds of Examples 5, 6 and 12 the drug portion of the prodrug was generated in situ in the assay by the addition of the enzyme β-lactamase as indicated below.
Mouse lymphoma cells, line L5178Y clone 3.7.2.C, was used for these studies. This clone was derived from the L5178Y wild-type line and is heterozygous for the thymidine kinase locus. It is widely used for assays of mutation to thymidine analogue resistance (loss of thymidine kinase). Stocks were maintained frozen in liquid nitrogen and recovered 7 days before the start of the study.
The cells were grown in RPMI 1640 medium buffered with 25 mM HEPES, and supplemented with 10% horse serum, 1mM sodium pyruvate, and 0.05% Pluriol (PF 6800 from BASF). In most cases, penicillin (100 iu/ml) and streptomycin (100µg/ml) were also included in the medium. Stock cultures were maintained by subculture into fresh medium every 2-3 days. Incubation was at 37 °C in an atmosphere of 5% CO₂ in air. Under these conditions, the cells grew as a static cell suspension with a population doubling time (cell cycle time) of 10-12 hr.
A growing culture, at a cell density of 1-2 x 10⁶/ml, was diluted with fresh medium to a density of 5 x 10⁵ cells/ml. An appropriate number of universal bottles was prepared with 4.5ml medium and O.5ml cell suspension to give a final cell concentration of 5 x 10⁴ cells/ml. In some tests, the cells were centrifuged and resuspended in Hank's Balanced Salt Solution (HBSS) to allow treatment in a simpler medium. […]
Cell growth was expressed as the number of population doublings (PD) achieved during a given time period ( t hrs ), calculated as follows: [drawing 5]
Growth relative to control ( % G ) was calculated for each treatment as follows: [drawing 6] […]

[2] = test system: O=C(Cc1cccs1)N[C@@H]1C(=O)N2C(C(=O)O)=C(CSc3ncnc4[nH]cnc34)CS[C@H]12; assay: purified protein, by the assay type; details: 37.0 °C

**Q.** Which IC50 ([1]; Mus musculus, L5178Y, read-out: ID50) does the source give for `Nc1nc2nc[nH]c2c(=S)[nH]1` [Thioguanine (drug), Thioguanine, reference compound] here?
**A.** 0.53 µM

**Q.** Which “Differential Toxicity (ID50 Prodrug/drug)” value ([1]; mouse lymphoma L5178Y cells) does the source give for `Nc1nc(SCC2=C(C(=O)O)N3C(=O)[C@@H](NC(=O)Cc4cccs4)[C@H]3SC2)c2[nH]cnc2n1` [Example 9, 3-(Guanin-6-ylthiomethyl)-7β-(2-acetamido)-3-cephem-4-carboxylic acid] here?
**A.** 13

**Q.** What about the IC50 ([1]; mouse lymphoma L5178Y cells, growth relative to control, read-out: ID50 (the source's name)) of the same compound?
**A.** 6.44 µM

**Q.** For “β-lactamase (E.coli RTEM) (Escherichia coli)”, which Km [2] is on record?
**A.** 138 µM
